pEC50: −log10 of the molar value.
Columns and labels:
[1] = system: MLANA; experiment: qPCR assay for MLANA expression in SK-MEL-5 cells; format: cell-based; details: Homo sapiens; SK-MEL-5 melanoma cells, up to 35 μM
[2] = system: DCT; experiment: qPCR assay for DCT expression in SK-MEL-5 cells; format: cell-based; details: Homo sapiens; SK-MEL-5 melanoma cells, up to 35 μM
[3] = system: CDK2; experiment: qPCR assay for CDK2 expression in SK-MEL-5 cells; format: cell-based, human; details: Homo sapiens; SK-MEL-5 melanoma cells, up to 35 μM
Method: SK-MEL-5 cells were treated with compounds for 24 hours. Next, cells were lysed with DNase I (Ambion, from Cell to CT Lysis Mix). Lysed cells were delivered to a RT-PCR plate (Ambion, Cells to CT RT Mix) and the plates were then processed for reverse transcription to create cDNA. qPCR was performed by transferring cDNA from the RT-PCR plate to a qPCR plate containing PCR master mix (Roche, Probes Master), FAM Taqman probe/primer set for the target gene (human MITF, Applied Biosystem, 4331182 Hs01117294_m1), VIC Taqman probe/primer set for a house keeping gene (human GAPDH, Applied Biosystems C10228) and water. qPCR plates were cycled using a real-time PCR instrument (Roche, Light Cycler). Using the instrument software, a cycle call was generated when each well enters log phase amplification (Ct). The delta Ct value was determined by subtracting the Ct value of the control gene (GAPDH) from the Ct value of the target gene (MITF) in each well. The delta delta Ct value of each compound treatment was determined by averaging the delta Ct values of the mock well on each plate and subtracting that average from the delta Ct value of each compound well. […]
• 10. […] The RT assay plates are incubated at 37° C. for 1 hour and the reverse transcriptase is inactivated by incubating the plates for 1 minute at 95° C. • 13. cDNA is stored at −80° C. until ready for qPCR analysis […]

[4] = target: T1, Opiate μ (OP3, MOP) (Homo sapiens, UniProt P35372); experiment: Radioligand binding, Opiate μ (OP3, MOP)
T1 construct: Eurofins Panlabs, Inc

[5] = target: T2, Potassium Channel [KATP] (Cricetus cricetus, UniProt Q09427); experiment: Radioligand binding, Potassium Channel [KATP]; details: hamster
T2 construct: Eurofins Panlabs
T2 sequence (Q09427 whole entry): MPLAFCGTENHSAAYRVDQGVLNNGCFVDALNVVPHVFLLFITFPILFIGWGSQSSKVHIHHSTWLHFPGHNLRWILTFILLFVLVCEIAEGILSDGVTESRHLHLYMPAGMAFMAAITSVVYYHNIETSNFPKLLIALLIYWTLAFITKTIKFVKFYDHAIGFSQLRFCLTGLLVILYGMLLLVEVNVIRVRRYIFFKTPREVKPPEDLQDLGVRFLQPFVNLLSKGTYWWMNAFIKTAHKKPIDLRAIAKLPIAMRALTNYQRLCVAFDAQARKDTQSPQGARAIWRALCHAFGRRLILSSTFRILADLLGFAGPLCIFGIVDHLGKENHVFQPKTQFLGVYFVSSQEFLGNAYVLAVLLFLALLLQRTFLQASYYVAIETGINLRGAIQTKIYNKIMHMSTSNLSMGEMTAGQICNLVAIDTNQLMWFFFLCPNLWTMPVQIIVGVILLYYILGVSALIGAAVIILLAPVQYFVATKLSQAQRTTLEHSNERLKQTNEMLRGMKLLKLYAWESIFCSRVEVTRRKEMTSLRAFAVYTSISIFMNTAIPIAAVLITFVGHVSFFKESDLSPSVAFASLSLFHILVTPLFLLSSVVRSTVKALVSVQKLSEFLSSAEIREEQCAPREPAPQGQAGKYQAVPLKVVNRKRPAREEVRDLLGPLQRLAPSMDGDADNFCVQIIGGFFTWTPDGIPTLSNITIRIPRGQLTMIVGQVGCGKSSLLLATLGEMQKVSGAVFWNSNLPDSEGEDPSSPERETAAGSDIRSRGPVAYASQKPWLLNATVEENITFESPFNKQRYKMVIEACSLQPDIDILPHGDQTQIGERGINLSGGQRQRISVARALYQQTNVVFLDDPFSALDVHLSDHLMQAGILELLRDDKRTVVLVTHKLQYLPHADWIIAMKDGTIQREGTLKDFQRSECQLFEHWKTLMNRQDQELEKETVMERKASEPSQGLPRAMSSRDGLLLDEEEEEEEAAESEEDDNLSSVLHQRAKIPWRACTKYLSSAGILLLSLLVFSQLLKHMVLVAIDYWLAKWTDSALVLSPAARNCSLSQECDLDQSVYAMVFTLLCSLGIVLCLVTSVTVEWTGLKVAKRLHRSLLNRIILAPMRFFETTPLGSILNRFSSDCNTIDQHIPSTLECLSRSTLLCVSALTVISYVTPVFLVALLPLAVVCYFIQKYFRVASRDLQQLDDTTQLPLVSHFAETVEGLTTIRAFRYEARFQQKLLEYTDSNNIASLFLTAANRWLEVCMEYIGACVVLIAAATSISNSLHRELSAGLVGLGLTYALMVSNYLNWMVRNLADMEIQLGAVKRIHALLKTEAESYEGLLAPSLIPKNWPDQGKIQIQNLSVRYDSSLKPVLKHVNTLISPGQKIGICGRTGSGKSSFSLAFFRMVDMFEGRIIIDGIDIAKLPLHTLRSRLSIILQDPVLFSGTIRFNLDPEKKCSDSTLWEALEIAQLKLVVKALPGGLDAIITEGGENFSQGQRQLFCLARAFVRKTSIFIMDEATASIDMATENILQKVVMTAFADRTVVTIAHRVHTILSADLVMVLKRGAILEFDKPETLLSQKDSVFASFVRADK
Method: To evaluate, in radioligand binding assays, the activity of the compound of Example 1 across a panel of 67 receptors.
Methods employed in this study have been adapted from the scientific literature to maximize reliability and reproducibility. Reference standards were run as an integral part of each assay to ensure the validity of the results obtained.
Where presented, IC50 values were determined by a non-linear, least squares regression analysis using MathIQ™ (ID Business Solutions Ltd., UK). Where inhibition constant (Ki) are presented, the Ki values were calculated using the equation of Cheng and Prusoff (Cheng. Y., Prusoff, W. H., Biochem. Pharmacol. 22:3099-3108, 1973) using the observed IC50 of the tested compound, the concentration of radioligand employed in the assay, and the historical values of the KD of the ligand (obtained experimentally at Eurofins Panlabs, Inc.). Where presented, the Hill coefficient (nH), defining the slope of the competitive binding curve, was calculated using MathIQ™. […] Where IC50, Ki, and/or nH data are presented without Standard Error of the Mean (SEM), data are insufficient to be quantitative, and the values presented (Ki, IC50, nH) should be interpreted with caution.

[6] = target: T3, Adrenergic α1B (Rattus norvegicus, UniProt P15823); experiment: Radioligand binding, Adrenergic α1B
T3 construct: Eurofins Panlabs, Inc. (contract assay)
T3 sequence (P15823 whole entry): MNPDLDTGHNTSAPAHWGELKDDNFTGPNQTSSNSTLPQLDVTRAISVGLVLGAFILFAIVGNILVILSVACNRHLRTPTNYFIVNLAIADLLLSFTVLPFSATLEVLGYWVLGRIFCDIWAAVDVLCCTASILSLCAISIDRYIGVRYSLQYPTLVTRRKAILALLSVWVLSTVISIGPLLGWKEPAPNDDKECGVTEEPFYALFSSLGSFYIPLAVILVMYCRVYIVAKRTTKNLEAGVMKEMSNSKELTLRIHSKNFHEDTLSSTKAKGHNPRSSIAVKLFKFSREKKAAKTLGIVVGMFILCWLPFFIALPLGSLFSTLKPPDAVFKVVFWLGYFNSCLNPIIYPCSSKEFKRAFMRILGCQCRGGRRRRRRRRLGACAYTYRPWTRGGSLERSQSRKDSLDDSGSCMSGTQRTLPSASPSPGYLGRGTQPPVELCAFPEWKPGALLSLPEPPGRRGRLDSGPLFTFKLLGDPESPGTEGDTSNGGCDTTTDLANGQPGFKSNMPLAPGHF

[7] = target: T4, Neuropeptide Y Y2 (Homo sapiens, UniProt P49146); experiment: Radioligand binding, Neuropeptide Y Y2
T4 construct: Eurofins Panlabs, Inc
T4 sequence (P49146 whole entry): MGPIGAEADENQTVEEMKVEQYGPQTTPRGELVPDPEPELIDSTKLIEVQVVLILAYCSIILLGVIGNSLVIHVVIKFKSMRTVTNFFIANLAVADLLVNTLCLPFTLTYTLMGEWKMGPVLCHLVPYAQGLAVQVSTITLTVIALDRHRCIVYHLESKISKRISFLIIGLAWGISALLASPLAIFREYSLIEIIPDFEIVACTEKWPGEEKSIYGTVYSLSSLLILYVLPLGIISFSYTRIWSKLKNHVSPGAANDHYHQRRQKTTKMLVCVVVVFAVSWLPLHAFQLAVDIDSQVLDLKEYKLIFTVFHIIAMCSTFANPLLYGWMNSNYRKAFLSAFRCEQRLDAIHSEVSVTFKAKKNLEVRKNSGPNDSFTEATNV

[8] = target: T5, Muscarinic M1 (Homo sapiens, UniProt P11229); experiment: Radioligand binding, Muscarinic M1
T5 construct: Eurofins Panlabs, Inc
T5 sequence (P11229 whole entry): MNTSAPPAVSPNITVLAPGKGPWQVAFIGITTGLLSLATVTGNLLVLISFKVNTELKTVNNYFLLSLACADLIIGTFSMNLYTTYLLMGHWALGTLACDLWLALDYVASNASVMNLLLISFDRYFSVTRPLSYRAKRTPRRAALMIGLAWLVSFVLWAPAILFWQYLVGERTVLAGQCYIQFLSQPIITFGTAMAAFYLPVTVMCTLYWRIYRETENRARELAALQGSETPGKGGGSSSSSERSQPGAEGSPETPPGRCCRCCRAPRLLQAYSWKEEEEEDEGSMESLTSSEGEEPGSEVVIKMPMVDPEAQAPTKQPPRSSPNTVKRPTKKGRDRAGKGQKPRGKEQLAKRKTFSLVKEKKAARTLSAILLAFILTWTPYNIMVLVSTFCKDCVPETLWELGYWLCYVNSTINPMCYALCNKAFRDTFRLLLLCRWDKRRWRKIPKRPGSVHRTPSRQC

[9] = target: T6, Serotonin (5-Hydroxytryptamine) 5-HT1A (Homo sapiens, UniProt P08908); experiment: Radioligand binding, Serotonin (5-Hydroxytryptamine) 5-HT1A
T6 construct: Eurofins Panlabs
T6 sequence (P08908 whole entry): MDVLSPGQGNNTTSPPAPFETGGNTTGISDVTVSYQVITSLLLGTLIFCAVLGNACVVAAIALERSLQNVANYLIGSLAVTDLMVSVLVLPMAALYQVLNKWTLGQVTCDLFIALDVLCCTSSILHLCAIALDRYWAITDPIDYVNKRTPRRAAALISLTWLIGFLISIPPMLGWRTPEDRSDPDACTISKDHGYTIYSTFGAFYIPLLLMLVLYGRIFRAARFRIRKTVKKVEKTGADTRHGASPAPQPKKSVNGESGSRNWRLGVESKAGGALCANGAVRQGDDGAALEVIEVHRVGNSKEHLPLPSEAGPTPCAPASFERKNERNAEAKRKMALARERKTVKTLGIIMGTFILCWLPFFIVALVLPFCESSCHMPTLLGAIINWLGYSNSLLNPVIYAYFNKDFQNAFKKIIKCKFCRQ

[10] = target: T7, Tachykinin NK1 (Homo sapiens, UniProt P25103); experiment: Radioligand binding, Tachykinin NK1
T7 construct: Eurofins Panlabs

[11] = target: T8, Glucocorticoid (Homo sapiens, UniProt P04150); experiment: Radioligand binding, Glucocorticoid
T8 construct: Eurofins Panlabs, Inc

[12] = target: T9, Transporter, Norepinephrine (NET) (Homo sapiens, UniProt P23975); experiment: Radioligand binding, Transporter, Norepinephrine (NET)
T9 construct: Eurofins Panlabs
T9 sequence (P23975 whole entry): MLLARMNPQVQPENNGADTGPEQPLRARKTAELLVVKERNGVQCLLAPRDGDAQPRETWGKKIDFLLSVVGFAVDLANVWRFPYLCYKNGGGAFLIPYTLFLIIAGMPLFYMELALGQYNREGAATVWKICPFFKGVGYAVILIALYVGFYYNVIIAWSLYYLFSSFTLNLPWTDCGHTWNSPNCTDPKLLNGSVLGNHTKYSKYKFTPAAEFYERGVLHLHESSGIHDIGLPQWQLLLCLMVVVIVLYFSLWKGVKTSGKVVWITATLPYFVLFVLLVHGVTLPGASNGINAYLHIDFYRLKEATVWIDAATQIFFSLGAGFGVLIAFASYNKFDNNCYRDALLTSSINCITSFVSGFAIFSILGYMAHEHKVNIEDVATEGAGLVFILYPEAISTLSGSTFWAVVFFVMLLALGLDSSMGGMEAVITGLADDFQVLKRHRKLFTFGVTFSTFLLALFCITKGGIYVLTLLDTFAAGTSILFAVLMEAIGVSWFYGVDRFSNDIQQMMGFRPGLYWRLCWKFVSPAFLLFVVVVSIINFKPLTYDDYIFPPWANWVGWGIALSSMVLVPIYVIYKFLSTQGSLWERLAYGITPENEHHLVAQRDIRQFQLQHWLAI

[13] = target: T10, Dopamine D2S (Homo sapiens, UniProt P14416); experiment: Radioligand binding, Dopamine D2S
T10 construct: Eurofins Panlabs, Inc. (contract assay)
T10 sequence (P14416 1-414 isoform P14416-2): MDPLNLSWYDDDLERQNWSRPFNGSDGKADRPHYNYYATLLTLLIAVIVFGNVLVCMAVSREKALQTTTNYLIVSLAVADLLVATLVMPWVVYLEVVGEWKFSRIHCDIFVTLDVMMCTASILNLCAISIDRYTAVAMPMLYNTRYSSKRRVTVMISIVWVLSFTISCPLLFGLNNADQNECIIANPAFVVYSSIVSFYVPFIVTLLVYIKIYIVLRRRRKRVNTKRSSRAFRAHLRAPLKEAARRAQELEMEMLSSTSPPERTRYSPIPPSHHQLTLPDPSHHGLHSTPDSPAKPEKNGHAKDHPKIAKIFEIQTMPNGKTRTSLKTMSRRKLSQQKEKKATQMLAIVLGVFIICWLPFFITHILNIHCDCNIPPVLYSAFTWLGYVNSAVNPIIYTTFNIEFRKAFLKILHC

[14] = target: T11, Estrogen ERα (Homo sapiens, UniProt P03372); experiment: Radioligand binding, Estrogen ERα
T11 construct: Eurofins Panlabs, Inc. (contract assay)
T11 sequence (P03372 whole entry): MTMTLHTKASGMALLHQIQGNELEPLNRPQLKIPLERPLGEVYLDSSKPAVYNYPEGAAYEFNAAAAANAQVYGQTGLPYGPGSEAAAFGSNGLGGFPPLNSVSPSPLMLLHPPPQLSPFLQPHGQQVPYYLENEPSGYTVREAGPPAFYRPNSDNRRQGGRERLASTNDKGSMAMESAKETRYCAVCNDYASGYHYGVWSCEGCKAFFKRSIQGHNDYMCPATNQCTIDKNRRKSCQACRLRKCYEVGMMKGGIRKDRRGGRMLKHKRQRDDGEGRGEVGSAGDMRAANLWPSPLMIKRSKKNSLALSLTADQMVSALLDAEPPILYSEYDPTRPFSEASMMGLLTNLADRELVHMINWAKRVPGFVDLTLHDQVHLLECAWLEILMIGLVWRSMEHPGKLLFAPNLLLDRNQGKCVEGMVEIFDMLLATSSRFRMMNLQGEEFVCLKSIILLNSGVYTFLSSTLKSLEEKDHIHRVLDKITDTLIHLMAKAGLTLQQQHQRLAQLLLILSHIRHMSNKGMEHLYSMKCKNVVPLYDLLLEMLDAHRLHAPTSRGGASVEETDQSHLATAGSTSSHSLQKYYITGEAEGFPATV

[15] = target: T12, Opiate κ (OP2, KOP) (Homo sapiens, UniProt P41145); experiment: Radioligand binding, Opiate κ (OP2, KOP)
T12 construct: Eurofins Panlabs, Inc

SMILES: NS(=O)(=O)c1ccc(NC2=CC(=O)c3ccccc3C2=O)cc1 [4-((1,4-dioxo-1,4-dihydronaphthalen-2-yl)amino)benzenesulfonamide]
- pEC50 [1]: 6.30
- pEC50 [2]: 7.00
- pEC50 [3]: 6.30

SMILES: NS(=O)(=O)c1ccc(NC2=CC(=O)c3ccccc3C2=O)cc1 [Example 1, 4-((1,4-Dioxo-1,4-dihydronaphthalen-2-yl)amino)benzenesulfonamide]
- inhibition at 10 µM [4]: 1%
- inhibition at 10 µM [5]: 10%
- inhibition at 10 µM [6]: 16%
- inhibition at 10 µM [7]: 5%
- inhibition at 10 µM [8]: 7%
- inhibition at 10 µM [9]: 21%
- inhibition at 10 µM [10]: 37%
- inhibition at 10 µM [11]: 5%
- inhibition at 10 µM [12]: 8%
- inhibition at 10 µM [13]: 0%
- inhibition at 10 µM [14]: 5%
- inhibition at 10 µM [15]: 19%

Reference: patent publication US9745261B2, “Inhibitors of the MITF molecular pathway” (THE GENERAL HOSPITAL CORPORATION, priority 2013, dated 2017)
